The test system of one assay is C. albicans. Description: Colony counts of C. albicans plated with Lamisil or Sporanox after sub-lethal NIMELS laser (Example XIII). The conditions noted are these: for C. albicans Colony Counts, Control: no laser, group AF8, replicates 1-5; for C. albicans Colony Counts, Experimental: sub-lethal NIMELS laser (AF-8 dosimetry), replicates 1-5. The format is cell-based, Candida albicans. The protocol:
Similar cell culture and kinetic protocols were performed for all NIMELS irradiation with E. coli and C. albicans in vitro tests. […] A standardized suspension was aliquoted into selected wells in a 24-well tissue culture plate. Following laser treatments, 100 μL was removed from each well and serially diluted to 1:1000 resulting in a final dilution of 1:5×10^6 of initial culture. An aliquot of each final dilution were spread onto separate plates. The plates were then incubated at 37° C. for approximately 16-20 hours. Manual colony counts were performed and recorded.
The null hypothesis is μ1−μ2=0 and μ1−μ3=0 where: a) μ1 is sub-lethal dosimetry ftom the NIMEL laser system on C. albicans as a control and; b) μ2 is the same sub-lethal dosimetry from the NTMEL laser system on C. albicans with the addition of Sporanos at resistant MIC just below effectiveness level and; c) μ3 is the same sub-lethal dosimetry from the NIMEL laser system on C. albicans with the addition of Lamisil at resistant MIC just below effectiveness level.

A further assay relates to S. aureus. The conditions noted are these: cited from earlier work.

Several values for one entry are separate records, joined by “and”; a condition that tells them apart may be missing. Equal values may be shown once. Read-outs that look alike come from different tables or passages of the source.

As to `CN(C/C=C/C#CC(C)(C)C)Cc1cccc2ccccc12` [Lamisil, terbinafine], the “effect of sub-lethal NIMELS irradiation on antifungal action against C. albicans colonies” value with C. albicans (0.5 ug/ml) was “potentiated by a sub-lethal dosimetry irradiation”. In addition, in the assay on C. albicans (Lamisil 0.5 ug/ml), the “C. albicans Colony Counts, Control” value is 290 and 335 and 334 and 280; the “C. albicans Colony Counts, Experimental” value was 101 and 70 and 90 and 78 and 74.

On to `CCC(C)n1ncn(-c2ccc(N3CCN(c4ccc(OCC5COC(Cn6cncn6)(c6ccc(Cl)cc6Cl)O5)cc4)CC3)cc2)c1=O` (stereo not shown) [Sporanox, itraconazole], for which, in the assay on C. albicans (Sporanox 0.5 ug/ml), the “C. albicans Colony Counts, Control” value was 360 and 332 and 320 and 311 and 295; the “C. albicans Colony Counts, Experimental” value was 110 and 86 and 91 and 80 and 107.

`CCCCCCCCCC(=O)N[C@@H](Cc1c[nH]c2ccccc12)C(=O)N[C@H](CC(N)=O)C(=O)N[C@@H](CC(=O)O)C(=O)N[C@@H]1C(=O)NCC(=O)N[C@@H](CCCN)C(=O)N[C@@H](CC(=O)O)C(=O)N[C@H](C)C(=O)N[C@@H](CC(=O)O)C(=O)NCC(=O)N[C@H](CO)C(=O)N[C@@H]([C@H](C)CC(=O)O)C(=O)N[C@@H](CC(=O)c2ccccc2N)C(=O)O[C@@H]1C` [daptomycin]: the “daptomycin concentration to achieve a 3-log reduction” value with S. aureus (cell growth halted by erythromycin, within 2 h) is on record as 10 μg/ml; in the assay with S. aureus (used alone, stationary phase S. aureus, 10^10 CFU/ml) it was 32 μg/ml.

(Values after patent publication US20110295343A1, “NEAR-INFRARED ELECTROMAGNETIC MODIFICATION OF CELLULAR STEADY-STATE MEMBRANE POTENTIALS” (priority 2008, published 2011).)
